# Measurements from patent publication US20100144675A1, “Regulation of sGC Function by Corrin Derivatives” (priority 2007, published 2010).
# Key:
# [1] = target: T1, recombinant human α1/β1 sGC (Homo sapiens, UniProt Q02108+Q02153); experiment: cGMP production by purified recombinant sGC (activation by tetrapyrroles); format: biochemical; details: for concentration at which sGC activation is maximal (dose response): dose response of corrins, FIG. 4C; for shift of EC50 of sGC activation in the combination: FIG. 4D/4E
# T1 construct: made in house
# T1 sequence (Q02108 1-690): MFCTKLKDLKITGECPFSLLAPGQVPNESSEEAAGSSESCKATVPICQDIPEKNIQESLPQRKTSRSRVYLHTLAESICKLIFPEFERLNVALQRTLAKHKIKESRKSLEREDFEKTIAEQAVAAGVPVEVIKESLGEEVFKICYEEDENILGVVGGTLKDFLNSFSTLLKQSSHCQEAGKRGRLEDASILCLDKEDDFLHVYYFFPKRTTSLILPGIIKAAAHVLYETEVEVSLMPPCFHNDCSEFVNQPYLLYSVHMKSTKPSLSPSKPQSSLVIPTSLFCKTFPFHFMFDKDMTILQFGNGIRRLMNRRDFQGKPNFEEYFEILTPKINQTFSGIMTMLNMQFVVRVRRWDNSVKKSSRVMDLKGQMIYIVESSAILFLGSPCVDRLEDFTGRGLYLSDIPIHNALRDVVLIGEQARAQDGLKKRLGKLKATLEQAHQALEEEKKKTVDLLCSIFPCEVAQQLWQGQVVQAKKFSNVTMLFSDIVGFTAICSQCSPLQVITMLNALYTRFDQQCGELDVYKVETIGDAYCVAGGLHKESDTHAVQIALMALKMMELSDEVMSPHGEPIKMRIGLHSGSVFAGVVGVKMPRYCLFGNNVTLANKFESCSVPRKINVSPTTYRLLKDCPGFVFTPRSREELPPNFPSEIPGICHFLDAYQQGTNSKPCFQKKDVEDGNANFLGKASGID
# T1 sequence (Q02153 1-619): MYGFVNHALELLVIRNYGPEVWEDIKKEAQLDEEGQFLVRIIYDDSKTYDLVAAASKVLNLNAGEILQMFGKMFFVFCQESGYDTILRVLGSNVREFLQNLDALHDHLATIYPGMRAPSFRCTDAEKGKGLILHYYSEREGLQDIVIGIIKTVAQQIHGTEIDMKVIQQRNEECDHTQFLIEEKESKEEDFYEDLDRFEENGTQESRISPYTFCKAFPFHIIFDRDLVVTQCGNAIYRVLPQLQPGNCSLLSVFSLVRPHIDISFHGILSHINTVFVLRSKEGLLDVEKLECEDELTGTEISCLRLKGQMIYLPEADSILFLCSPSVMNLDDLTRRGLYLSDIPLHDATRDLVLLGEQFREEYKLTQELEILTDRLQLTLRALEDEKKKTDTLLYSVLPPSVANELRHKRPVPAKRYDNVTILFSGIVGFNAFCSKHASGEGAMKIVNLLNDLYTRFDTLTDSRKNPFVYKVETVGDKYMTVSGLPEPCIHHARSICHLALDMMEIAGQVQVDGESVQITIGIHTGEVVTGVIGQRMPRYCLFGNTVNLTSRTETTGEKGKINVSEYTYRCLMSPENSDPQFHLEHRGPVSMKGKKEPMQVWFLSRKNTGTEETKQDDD
# Description: FIG. 4. Effect of tetrapyrroles on sGC activity in vitro. A. cGMP production by recombinant human α1/β1 sGC induced by 50 μM factor B, bilirubin, nitrite ionophore 1, uroporphyrin I, or protoporphyrin IX. B. cGMP production by recombinant human α1/β1 sGC induced by 50 μM factor B, bilirubin, nitrite ionophore 1, uroporphyrin I, or protoporphyrin IX alone or in the presence of 1 μM BAY41-2272 or HMR1766. C. cGMP production by recombinant al (31 sGC in response to increasing concentration of protoporphyrin, factor B, vitamin B12 and vitamin B12a. D. cGMP production by recombinant human al/131 sGC induced by various doses of factor B at various doses of BAY41-2272. E. cGMP production by recombinant human α1/β1 sGC induced by various doses of factor B at various doses of BAY41-2272.
# Activation of purified sGC by various tetrapyrroles. […] Methods of recombinant expression and purification of human α1/β11 isoform of sGC have been developed^23, 24. Measurements of enzymatic activity and multiple spectral studies performed using this recombinant enzyme^10, 23, 25 indicate that these recombinant preparations have identical properties as the native enzyme. We tested a series of tetrapyrrole compounds (FIG. 3), which are structurally related to PPIX. Similar to PPIX, majority of the tested tetrapyrroles contain four pyrrole rings connected to form a microcycle. In the case of billirubin, however, the microcycle is interrupted. […] We then compared fB with vitamin B12 (cyanocobalamine) or its derivative B12a (aquacobalamine) and PPIX, all at 50 μM. […] HMR1766 was kindly provided by Sanofi-Avantis (see a letter attached).
# sGC = details: cited from earlier work
# rat aortic rings [2] = experiment: Relaxation of phenylephrine-preconstricted isolated rat aortic rings; format: cell-based, Sprague Dawley rats; details: for vascular relaxation of preconstricted aortic rings: 1 μM phenylephrine preconstriction, cumulative addition
# Description: FIG. 5. Synergistic effect of corrin derivatives and BAY41-2272 on relaxation of rat aortic rings. The measurements were performed in the presence of corrin derivatives±BAY41-2272 as described in the text. Data are average of two aortic rings per each dose-response curve. Arrow indicates the shift in the effective dose and increased response.
# FB-dependent relaxation of isolated rat aorta. In addition to in vitro analysis of sGC activity, we tested whether fB and vitamin B12 derivatives will induce relaxation of preconstricted rat aortic rings. The descending thoracic aorta was excised from freshly sacrificed Sprague Dawley rats, cleaned of adherent tissue and cut into 3-4 mm rings. Each ring was suspended between two wires hooks and mounted under 1 mN of passive tension in 4 ml organ chambers filled with Krebs' solution at 37° C., pH 7.4 and continuously aerated with 95% O2/5% CO2. The changes in isometric tension were measured by a force transducer (Grass Instruments, USA) connected to a PowerLab 400™ data-acquisition system (ADInstruments, Colorado Springs, Mass., USA). Ring preparations were equilibrated for 1 h before the start of the experiments. After the equilibration period, rings were preconstricted with 1 μM phenylephrine and maximal contractile response is determined. After maximal constriction the agonists (vitamin B12, methyl-B12, fB, BAY41-2272) were added cumulatively and changes in isometric tension determined. […] In the presence of a low dose of BAY41-2272 (0.1 μM) EC50 of fB decreased while the response increased.
# anesthetized rats = experiment: Blood pressure (MAP) and cardiac output in instrumented anesthetized rats; format: in vivo, Sprague Dawley rats; details: for change in blood pressure after bolus: 500 μl bolus into abdominal aorta, fB at 5 and 15 mg/ml or 100 μg/kg BAY41-2272; for change in cardiac output after bolus: 500 μl bolus, data not shown
# Description: FIG. 6. Effect of factor B and BAY41-2272 on mean arterial pressure (MAP) in instrumented anesthetized rats. Indicated amount of drugs were delivered as a 500 μl bolus through a catheter into the abdominal aorta and MAP were recorded as described in section D1.2. “Contr”—500 μl of saline,
# Effect of factor B and BAY41-2272 on blood pressure of anesthetized rats. We also measured the effect of bolus application of fB on changes in hemodynamic parameters in anesthetized rats. Sprague Dawley rats were surgically implanted with a 10-MHz pulsed Doppler flow and a displacement probe around the ascending aorta and sutured to the left ventricular wall, respectively. A Tygon catheter was placed into the abdominal aorta via the femoral artery. After recovery the animals were anesthetized with halothane, intubated, and ventilated under isothermic conditions. Changes in systolic, diastolic, mean arterial pressures and cardiac output were recorded and processed with a multichannel-pulsed Doppler flow/dimension system and digitized (A/D converter). Before experimental treatments with fB and/or BAY41-2272 the animals were treated with a bolus of 30 μg/kg of sodium nitroprusside to confirm the integrity of the catheter and delivery system and the responsiveness of animals to drugs. After the baseline was established a 500 μl bolus of fB at 5 and 15 mg/ml or 100 μg/kg of BAY41-2272 (Alexis, San Diego, Calif., USA) was delivered and the changes in blood pressure (FIG. 6A). and cardiac output were recorded (data not shown).
# rat aortic rings [3] = experiment: cGMP levels in treated rat aortic rings; format: cell-based; details: 5 minutes incubation, 37° C., in combination with BAY 41-2272
# Description: FIG. 7. Changes in cGMP levels in rat aortic rings. Aortic rings were incubated with saline or saline with factor B in the presence or absence of BAY 41-2272 for 5 minutes at 37° C. cGMP was extracted and quantified.
# Changes in cGMP levels in isolated rat aorta treated with factor B and BAY 41-2272. In order to confirm that relaxation of blood vessels and decreased blood pressure in response to factor B is dependent on sGC activity we measured cGMP levels in treated aortic rings.
# [4] = combination of BAY41-2272 and fB
# [5] = in the presence of 0.1 μM BAY41-2272
# [6] = fB together with 100 μg/kg BAY41-2272, FIG. 6B
compound,measurement,setting,value
"C/C1=C2/[N-][C@H]([C@H](CC(N)=O)[C@@]2(C)CCC(=O)NC[C@@H](C)OP(=O)([O-])OC2C(O)[C@@H](n3cnc4cc(C)c(C)cc43)O[C@H]2CO)[C@]2(C)N=C(/C(C)=C3N=C(/C=C4N=C1[C@@H](CCC(N)=O)C\4(C)C)[C@@H](CCC(N)=O)[C@]\3(C)CC(N)=O)[C@@H](CCC(N)=O)[C@]2(C)CC(N)=O.O.[Co+2] (some centres unmarked) [vitamin B12a, aquacobalamine, reference compound]",concentration at which sGC activation is maximal (dose response),[1],50 µM
"[N]=O [NO, nitric oxide]",increase in rate of cGMP production,sGC; high-output state,> 100 fold
"C/C1=C2/[N-]C([C@H](CC(N)=O)[C@@]2(C)CCC(=O)NCC(C)O)[C@]2(C)N=C(/C(C)=C3N=C(/C=C4N=C1[C@@H](CCC(N)=O)C\4(C)C)[C@@H](CCC(N)=O)[C@]\3(C)CC(N)=O)[C@@H](CCC(N)=O)[C@]2(C)CC(N)=O.[C-]#N.[C-]#N.[Co] (some centres unmarked) [factor B, dicyanocobinamide]","sGC activation in combination with HMR1766, FIG. 4B",[1]; 50 μM with 1 μM HMR1766,even more effective than PPIX/HMR1766
same,"sGC activation compared with vitamin B12, B12a and PPIX, FIG. 4B",[1]; all at 50 μM,effective activator of sGC
same,sGC activation by the combination (synergy),[1]; [4],synergistically enhanced the enzyme
same,shift of EC50 of sGC activation in the combination,[1]; [4],shifted the EC50 to lower concentrations
same,concentration at which sGC activation is maximal (dose response),[1],did not reach maximum in the tested range of concentrations
same,"sGC activation (cGMP production), FIG. 4A",[1]; tetrapyrrole alone at 50 μM,significantly activated sGC
same,vascular relaxation of preconstricted aortic rings,rat aortic rings [2],can induce vascular relaxation
same,EC50 of aortic ring relaxation,rat aortic rings [2]; [5],decreased
same,relaxation response,rat aortic rings [2]; [5],increased
same,change in blood pressure after bolus,anesthetized rats,Transient decreased in blood pressure
same,change in cardiac output after bolus,anesthetized rats,increased cardiac output
same,"baseline to which MAP was restored, versus BAY41-2272 alone","anesthetized rats; combined fB/BAY41-2272 treatment, FIG. 6B",even lower and more prolonged
same,amplitude of drop in blood pressure,anesthetized rats; [6],enhanced the amplitude of BAY41-2272-induced drop in blood pressure
same,time of acutely decreased blood pressure,anesthetized rats; [6],significantly prolonged
same,levels of cGMP in aortic rings,rat aortic rings [3],increased
"C/C1=C2/[N-][C@H]([C@H](CC(N)=O)[C@@]2(C)CCC(=O)NC[C@H](C)OP(=O)([O-])O[C@H]2[C@@H](O)[C@@H](n3cnc4cc(C)c(C)cc43)O[C@@H]2CO)[C@]2(C)N=C(/C(C)=C3N=C(/C=C4N=C1[C@@H](CCC(N)=O)C\4(C)C)[C@@H](CCC(N)=O)[C@]\3(C)CC(N)=O)[C@@H](CCC(N)=O)[C@]2(C)CC(N)=O.[CH3-].[Co+3] [methyl-B12, methylcobalamin, reference compound]",vascular relaxation of preconstricted aortic rings,rat aortic rings [2],can induce vascular relaxation
"Nc1nc(-c2nn(Cc3ccccc3F)c3ncccc23)nc(N)c1N1CCOCC1 [BAY41-2272, reference compound]",shift of EC50 of sGC activation in the combination,[1]; [4],shifted the EC50 to lower concentrations
same,MAP after administration,anesthetized rats; 100 μg/kg BAY41-2272 alone,stabilize their MAP at lower values
same,time lower MAP is maintained,anesthetized rats; 100 μg/kg BAY41-2272 alone,at least 30 minutes
same,change in blood pressure after bolus,anesthetized rats,Transient decreased in blood pressure
same,change in cardiac output after bolus,anesthetized rats,increased cardiac output
"[C-]#[O+] [CO, carbon monoxide]",cGMP produced compared to the resting enzyme,sGC; low-output state,3-4 time
"cyanocobalamin [vitamin B12, reference compound]",concentration at which sGC activation is maximal (dose response),[1],50 µM
same,vascular relaxation of preconstricted aortic rings,rat aortic rings [2],can induce vascular relaxation
